Data from patent US20250195521A1 (Revolution Medicines, Inc., priority 2020, published 2025).

Tests used:
[1] = target: KRAS G12D (Homo sapiens (Human), UniProt P01116+P62937, G12D); test: Ras-Raf disruption/FRET/MOA assay (BRAF RBD, Cyclophilin A); type: biochemical; conditions: read-out: KRAS G12D FRET IC50
How it was run: (§1)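 Ras-GMPPNP (12.5 nM), BRAF RBD (50 nM) and 25 μM Cyclophilin A were incubated with compound for 3 h at 25° C, then detected 1.5 h with anti-His Eu and anti-GST APC; IC50 values follow from the reduced TR-FRET ratio.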

[2] = target: KRAS G12V (Homo sapiens (Human), UniProt P01116+P62937, G12V); test: as above; type: biochemical; conditions: read-out: KRAS G12V FRET IC50
How it was run: as §1

[3] = target: KRAS G12S (Homo sapiens (Human), UniProt P01116+P62937, G12S); test: as above; type: biochemical; conditions: read-out: KRAS G12S FRET IC50
How it was run: as §1

[4] = target: KRAS WT (Homo sapiens (Human), UniProt P01116+P62937); test: as above; type: biochemical; conditions: read-out: KRAS WT FRET data IC50
How it was run: as §1

[5] = target: NRAS Q61K (Homo sapiens (Human), UniProt P01111+P62937, Q61K); test: as above; type: biochemical
How it was run: (§2)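 TR-FRET read after 1.5 h with 10 nM anti-His Eu-W1024 and 50 nM anti-GST APC, following 3 h at 25 °C of GMPPNP-loaded His6-Ras (12.5 nM), GST-BRAF RBD (50 nM) and Cyclophilin A (25 μM) with compound from 30 μM final, 10 points, 3-fold. IC50 reported; pH 7.3 HEPES, 100 mM NaCl.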

[6] = target: NRAS WT (Homo sapiens (Human), UniProt P01111+P62937); test: as above; type: biochemical
How it was run: as §2

[7] = target: KRAS G13D (Homo sapiens (Human), UniProt P01116+P62937, G13D); test: as above; type: biochemical; conditions: read-out: KRAS G13D FRET data IC50
How it was run: as §1

[8] = target: KRAS G13C (Homo sapiens (Human), UniProt P01116+P62937, G13C); test: as above; type: biochemical; conditions: read-out: KRAS G13C FRET IC50
How it was run: as §1

[9] = target: NRAS Q61R (Homo sapiens (Human), UniProt P01111+P62937, Q61R); test: as above; type: biochemical
How it was run: as §2

[10] = target: KRAS Q61H (Homo sapiens (Human), UniProt P01116+P62937, Q61H); test: as above; type: biochemical
How it was run: as §1

[11] = target: NRAS G12C (Homo sapiens (Human), UniProt P01111+P62937, G12C); test: as above; type: biochemical; conditions: read-out: NRAS G12C FRET data IC50
How it was run: as §2

[12] = target: KRAS G12C (Homo sapiens (Human), UniProt P01116+P62937, G12C); test: as above; type: biochemical; conditions: read-out: KRAS G12C FRET IC50
How it was run: as §1

[13] = system: Capan-1 cells (K-Ras G12V); test: CellTiter-Glo cell viability, Capan-1; type: cell-based, human; conditions: Homo sapiens, CAPAN-1, 120 h, K-Ras G12V, 5-day treatment; read-out: Capan-1 Cell Viability IC50
How it was run: (§3)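 Endpoint: CellTiter-Glo luminescence on day 5, following ~30 min at room temperature. Data as (sample/mean DMSO)×100, four-parameter logistic fit.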

[14] = system: NCI-H358 (K-Ras G12C); test: CellTiter-Glo cell viability assay, NCI-H358; type: cell-based, human; conditions: Homo sapiens, NCI-H358, 120 h, 5-day treatment; read-out: H358 Cell Viability assay data (K-Ras G12C, IC50)
How it was run: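 After direct compound addition, plates were incubated to day 5 and equilibrated at room temperature for about 30 minutes before CellTiter-Glo reading. Values derive from luminescence relative to the DMSO mean, fitted with a four-parameter logistic model.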

[15] = target: K-Ras G12C(GMP-PNP) binding to BRAF RBD (Homo sapiens (Human), UniProt P01116+P62937, G12C); test: Disruption of BRAF RBD interaction with K-Ras (FRET / MOA assay), K-Ras G12C; type: biochemical; conditions: read-out: KRAS G12C FRET IC50
How it was run: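 Incubation of compound (up to 30 μM final, 3-fold steps) with GMP-PNP-type loaded Ras isoform, cyclophilin A and BRAF RBD ran 3 h at 25° C, followed by 1.5 h with detection antibodies. Disruption appears as a reduced TR-FRET ratio compared with DMSO controls, expressed as IC50.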

[16] = system: K-Ras G12C (NCI-H358 cells); test: Potency assay: pERK in NCI-H358 cells; type: cell-based, human; conditions: Homo sapiens; NCI-H358 cells, 4 hours; read-out: pERK EC50 (H358 KRAS G12C)
How it was run: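 Cells plated the day before were exposed for 4 h at 37° C, 5% CO2 to a 10-point, 3-fold DMSO dilution series (10 mM top stock), in duplicate. Phospho-ERK was read by AlphaLISA SureFire Ultra or by In-Cell Western with DRAQ5 DNA stain, and IC50 came from a 4-parameter sigmoidal fit.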

[17] = system: NCI-H358 cells (K-Ras G12C); test: CellTiter-Glo cell viability, NCI-H358; type: cell-based, human; conditions: Homo sapiens, NCI-H358, 120 h, K-Ras G12C, 5-day treatment; read-out: H358 Cell Viability IC50
How it was run: as §3

Sequence of KRAS G13C (P01116 other isoform, or with tags, fused parts or gaps G13C): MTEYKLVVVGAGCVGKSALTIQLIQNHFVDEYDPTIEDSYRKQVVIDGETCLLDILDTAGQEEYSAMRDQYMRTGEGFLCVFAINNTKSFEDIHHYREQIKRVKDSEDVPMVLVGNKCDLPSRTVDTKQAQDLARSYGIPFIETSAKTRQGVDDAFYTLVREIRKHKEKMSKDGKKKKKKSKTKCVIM
Sequence of KRAS G13C (P62937 whole entry): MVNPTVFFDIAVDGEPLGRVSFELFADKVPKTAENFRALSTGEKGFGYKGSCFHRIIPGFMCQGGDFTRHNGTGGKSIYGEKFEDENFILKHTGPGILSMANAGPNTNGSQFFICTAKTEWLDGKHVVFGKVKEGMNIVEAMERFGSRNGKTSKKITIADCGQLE
Sequence of KRAS G12D (P01116 other isoform, or with tags, fused parts or gaps G12D): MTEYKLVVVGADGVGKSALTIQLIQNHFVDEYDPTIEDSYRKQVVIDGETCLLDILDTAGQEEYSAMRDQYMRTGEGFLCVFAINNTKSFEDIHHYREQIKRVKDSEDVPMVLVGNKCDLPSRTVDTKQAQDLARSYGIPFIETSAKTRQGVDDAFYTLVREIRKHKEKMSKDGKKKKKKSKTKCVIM
Sequence of KRAS G12D (P62937 whole entry): as the sequence (P62937 whole entry) above
Sequence of NRAS WT (P01111 whole entry): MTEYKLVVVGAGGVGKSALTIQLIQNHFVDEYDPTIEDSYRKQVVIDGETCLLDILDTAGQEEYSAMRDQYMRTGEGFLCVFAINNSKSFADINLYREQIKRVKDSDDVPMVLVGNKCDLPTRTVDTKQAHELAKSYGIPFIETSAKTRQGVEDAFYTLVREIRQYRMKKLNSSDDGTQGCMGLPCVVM
Sequence of NRAS WT (P62937 whole entry): as the sequence (P62937 whole entry) above
Sequence of NRAS Q61R (P01111 whole entry Q61R): as the sequence (P01111 whole entry) above, with Q61R counted along it
Sequence of NRAS Q61R (P62937 whole entry): as the sequence (P62937 whole entry) above
Sequence of KRAS G12C (P01116-2 other isoform, or with tags, fused parts or gaps G12C): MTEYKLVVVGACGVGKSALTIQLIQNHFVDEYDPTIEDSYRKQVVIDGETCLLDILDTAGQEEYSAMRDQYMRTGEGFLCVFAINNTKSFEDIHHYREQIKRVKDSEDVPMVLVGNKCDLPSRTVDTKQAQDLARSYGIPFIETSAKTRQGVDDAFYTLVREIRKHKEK
Sequence of KRAS G12C (P62937 whole entry): as the sequence (P62937 whole entry) above
Sequence of KRAS G12S (P01116 other isoform, or with tags, fused parts or gaps G12S): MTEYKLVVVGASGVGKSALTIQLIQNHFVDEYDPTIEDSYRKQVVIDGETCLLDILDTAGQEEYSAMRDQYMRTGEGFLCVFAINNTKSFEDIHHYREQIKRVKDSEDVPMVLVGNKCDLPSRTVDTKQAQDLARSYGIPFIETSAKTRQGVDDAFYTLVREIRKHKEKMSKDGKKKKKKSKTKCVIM
Sequence of KRAS G12S (P62937 whole entry): as the sequence (P62937 whole entry) above
Sequence of KRAS G12V (P01116 other isoform, or with tags, fused parts or gaps G12V): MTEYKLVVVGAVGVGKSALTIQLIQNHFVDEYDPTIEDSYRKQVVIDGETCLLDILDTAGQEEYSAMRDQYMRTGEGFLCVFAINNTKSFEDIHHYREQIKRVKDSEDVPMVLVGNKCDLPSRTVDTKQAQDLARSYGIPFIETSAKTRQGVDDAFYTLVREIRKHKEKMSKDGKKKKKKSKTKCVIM
Sequence of KRAS G12V (P62937 whole entry): as the sequence (P62937 whole entry) above
Sequence of KRAS G13D (P01116 other isoform, or with tags, fused parts or gaps G13D): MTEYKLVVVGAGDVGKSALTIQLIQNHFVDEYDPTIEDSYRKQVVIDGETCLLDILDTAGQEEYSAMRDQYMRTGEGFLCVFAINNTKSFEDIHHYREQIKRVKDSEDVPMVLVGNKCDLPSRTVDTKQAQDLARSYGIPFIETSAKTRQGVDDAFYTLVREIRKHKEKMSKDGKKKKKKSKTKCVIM
Sequence of KRAS G13D (P62937 whole entry): as the sequence (P62937 whole entry) above
Sequence of NRAS Q61K (P01111 whole entry Q61K): as the sequence (P01111 whole entry) above, with Q61K counted along it
Sequence of NRAS Q61K (P62937 whole entry): as the sequence (P62937 whole entry) above
Sequence of KRAS WT (P01116 other isoform, or with tags, fused parts or gaps): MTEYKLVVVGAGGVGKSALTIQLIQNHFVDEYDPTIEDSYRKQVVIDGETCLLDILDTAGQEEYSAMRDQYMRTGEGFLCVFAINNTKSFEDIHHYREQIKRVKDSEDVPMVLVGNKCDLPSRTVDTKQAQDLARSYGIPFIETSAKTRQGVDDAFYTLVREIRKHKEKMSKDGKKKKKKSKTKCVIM
Sequence of KRAS WT (P62937 whole entry): as the sequence (P62937 whole entry) above
Sequence of NRAS G12C (P01111 whole entry G12C): as the sequence (P01111 whole entry) above, with G12C counted along it
Sequence of NRAS G12C (P62937 whole entry): as the sequence (P62937 whole entry) above
Sequence of KRAS Q61H (P01116 other isoform, or with tags, fused parts or gaps Q61H): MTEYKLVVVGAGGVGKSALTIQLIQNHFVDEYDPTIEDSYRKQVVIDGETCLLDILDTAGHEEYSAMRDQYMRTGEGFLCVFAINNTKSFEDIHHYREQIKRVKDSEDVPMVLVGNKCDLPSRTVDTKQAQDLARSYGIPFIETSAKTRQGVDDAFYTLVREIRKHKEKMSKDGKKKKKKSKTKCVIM
Sequence of KRAS Q61H (P62937 whole entry): as the sequence (P62937 whole entry) above
Sequence of K-Ras G12C(GMP-PNP) binding to BRAF RBD (P01116 other isoform, or with tags, fused parts or gaps G12C): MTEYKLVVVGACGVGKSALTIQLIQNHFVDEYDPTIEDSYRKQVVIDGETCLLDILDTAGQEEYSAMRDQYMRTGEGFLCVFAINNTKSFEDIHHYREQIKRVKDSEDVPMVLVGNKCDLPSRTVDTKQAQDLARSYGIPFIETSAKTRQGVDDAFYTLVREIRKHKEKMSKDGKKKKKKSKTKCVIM
Sequence of K-Ras G12C(GMP-PNP) binding to BRAF RBD (P62937 whole entry, canonical isoform): as the sequence (P62937 whole entry) above

Row | Compound | IC50 [1] | IC50 [2] | IC50 [3] | IC50 [4] | IC50 [5] | IC50 [6] | IC50 [7] | IC50 [8] | IC50 [9] | IC50 [10] | IC50 [11] | IC50 [12] | IC50 [13] | IC50 [14] | IC50 [15] | EC50 [16] | IC50 [17]
1 | CCn1c(-c2cccnc2[C@H](C)OC)c2c3cc(ccc31)-c1csc(n1)C[C@H](NC(=O)[C@H](C(C)C)N(C)C(=O)N1[C@H](C)CN(C)C[C@@H]1C)C(=O)N1CCC[C@H](N1)C(=O)OCC(C)(C)C2 [Compound A272] | 1000 to 10000 nM | > 10000 nM | 1000 to 10000 nM | 1000 to 10000 nM | 1000 to 10000 nM | 1000 to 10000 nM | 1000 to 10000 nM | 1000 to 10000 nM | 1000 to 10000 nM | 100 to 1000 nM | 1000 to 10000 nM | 1000 to 10000 nM | 1000 to 10000 nM |  |  |  | 
2 | CCn1c(-c2cccnc2[C@H](C)OC)c2c3cc(ccc31)-c1csc(n1)C[C@H](NC(=O)[C@H](C(C)C)N(C)C(=O)N1C[C@@H]3[C@@H](C1)OCCN3C)C(=O)N1CCC[C@H](N1)C(=O)OCC(C)(C)C2 [Compound A472] | 1000 to 10000 nM | 100 to 1000 nM | 100 to 1000 nM | 100 to 1000 nM | 100 to 1000 nM | 100 to 1000 nM | 1000 to 10000 nM | 100 to 1000 nM | 100 to 1000 nM | 100 to 1000 nM | 100 to 1000 nM | 100 to 1000 nM | 10 to 100 nM |  |  |  | 
3 | CCn1c(-c2cccnc2[C@H](C)OC)c2c3cc(ccc31)-c1csc(n1)C[C@H](NC(=O)[C@H](C(C)C)N(C)C(=O)N1C[C@@H]3CCN(C)C[C@@H]31)C(=O)N1CCC[C@H](N1)C(=O)OCC(C)(C)C2 [Compound A516] | 1000 to 10000 nM | 1000 to 10000 nM | 1000 to 10000 nM | 1000 to 10000 nM | 1000 to 10000 nM | 1000 to 10000 nM | 1000 to 10000 nM | 1000 to 10000 nM | 1000 to 10000 nM |  | 1000 to 10000 nM | 1000 to 10000 nM | 100 to 1000 nM | > 10000 nM | 1000 to 10000 nM |  | 
4 | CCn1c(-c2cccnc2[C@H](C)OC)c2c3cc(ccc31)-c1csc(n1)C[C@H](NC(=O)[C@H](C(C)C)N(C)C(=O)N1C[C@H]3CCN(C)C[C@H]31)C(=O)N1CCC[C@H](N1)C(=O)OCC(C)(C)C2 [Compound A517] | 1000 to 10000 nM | 1000 to 10000 nM | 1000 to 10000 nM | 1000 to 10000 nM | 1000 to 10000 nM | 1000 to 10000 nM | 1000 to 10000 nM | 1000 to 10000 nM | 1000 to 10000 nM |  | 1000 to 10000 nM | 1000 to 10000 nM | 100 to 1000 nM |  |  | < 5000 nM | 1000 to 10000 nM
5 | CCn1c(-c2cccnc2[C@H](C)OC)c2c3nc(ccc31)-c1csc(n1)C[C@H](NC(=O)[C@H](C(C)C)N(C)C(=O)N1CC(OC)C1)C(=O)N1CCC[C@H](N1)C(=O)OCC(C)(C)C2 [Compound A613, N-((2S)-1-(((6^3S,4S,Z)-1^1-ethyl-1^2-(2-((S)-1-methoxyethyl)pyridin-3-yl)-10,10-dimethyl-5,7-dioxo-6^1,6^2,6^3,6^4,6^5,6^6-hexahydro-1^1H-8-oxa-2 (4,2)-thiazola-1 (5,3)-pyrrolo [3,2-b]pyridina-6 (1,3)-pyridazinacycloundecaphane-4-yl)amino)-3-methyl-1-oxobutan-2-yl)-3-methoxy-N-methylazetidine-1-carboxamide] | 1000 to 10000 nM | 1000 to 10000 nM | 1000 to 10000 nM | 1000 to 10000 nM | 100 to 1000 nM | 1000 to 10000 nM | 1000 to 10000 nM | 1000 to 10000 nM | 1000 to 10000 nM |  | 1000 to 10000 nM | 1000 to 10000 nM | 100 to 1000 nM | 10 to 100 nM | 100 to 1000 nM |  | 100 to 1000 nM
